Each structure is given as a SMILES string.

This series is described as follows: gradient 5% acetonitrile 3 min, to 50% in 2 min, to 85% in 15 min, held 3 min, 100 µL/min. The conditions noted are these: column: Zorbax Extend-C18 2.1 x 50 mm; eluents: water / acetonitrile, 0.1% formic acid. Put shortly: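 Using water and acetonitrile that each contained 0.1% formic acid, mixtures of ~100 pure standards were separated at 100 μL/min on a Zorbax Extend-C18 column (2.1 × 50 mm, 1.8 μm). The HPLC fed a quadrupole time-of-flight mass spectrometer working in positive and negative ionization mode, with dead and dwell volumes of 40 μL and 900 μL. Data were acquired over 3 months. Retention time was read from computationally picked adduct peaks after manual inspection of each.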
For `CC1(C(=O)NCc2ccc(F)cc2)CCCN(C(=O)Nc2ccccc2Cl)C1` (stereo not given), the RP-LC retention time came to 941 s.
For `COc1ccc2c(c1)C1(CCN(C(=O)NCCc3ccccc3)C1)C(=O)N2C` (stereo not given), the RP-LC retention time was 757 s.
For the compound `O=S(=O)(c1cccn2c(SCc3cccc(F)c3)nnc12)N1CCc2ccccc2C1`, the RP-LC retention time was 959 s.
Turning to `CCOC(=O)c1cc(S(=O)(=O)N2CCCC2C(=O)Nc2cccc3c2CCCC3)cn1C` (stereo not given), the RP-LC retention time came out at 1060 s.
With `CCc1ccc(CNC(=O)Cn2ccc3ccc(N4CCCCC4)nc32)cc1` the figure was 999 s.
Under `O=C(CCn1nnc2cc(-c3noc(-c4cccc(F)c4)n3)ccc21)N1CCCC1` stands 928 s; under `Nc1cc(-c2cccs2)nn1CCO`, 562 s.
The compound `COc1ccc(-c2nc(Cc3noc(-c4ccccc4F)n3)c(C)o2)cc1` came in with an RP-LC retention time of 1080 s.
The compound `O=C(Cn1cccc1-c1nc(-c2ccc3c(c2)OCO3)no1)Nc1cc(F)ccc1F` came in with an RP-LC retention time of 1000 s.
Compound `CCCn1cc(C(=O)Nc2ccc(N3CCOCC3)cc2)c2cccnc21` showed an RP-LC retention time of 895 s.
Compound `Cc1ccsc1C(=O)N1CCC2(CC1)NC(=O)N(Cc1ccccc1)C2=O` returned an RP-LC retention time of 768 s.
In the case of `O=C(CCc1nc2ccccc2s1)NCC12CCCC=C1NC(=O)CC2` (stereo not given), the RP-LC retention time stood at 695 s.
With `CCn1cc(CCNC(=O)Nc2cccc(OC)c2)c2cccnc21`, the RP-LC retention time came to 733 s.
With `CC1(C(=O)NCc2ccc(F)cc2)CCN(S(=O)(=O)c2ccc(Br)s2)CC1`, the RP-LC retention time was 1010 s.
`COC(=O)c1ncn2c1C(=O)N(Cc1ccccc1F)C(C)(C(=O)NC1CCCC1)C2` (stereo not given) gave an RP-LC retention time of 737 s.
Take `Cc1ccc(C)c(NC(=O)N2C[C@H](c3nc(-c4ccncc4)no3)[C@@H](C)C2)c1`: the RP-LC retention time was found to be 830 s.
Consider `O=C(NC1CCCCC1)N1CCCC(Cn2c(C3CC3)nc3cccnc32)C1` (stereo not given), for which the RP-LC retention time turned out to be 668 s.
On to `NC(=O)c1nnn(Cc2cccc([N+](=O)[O-])c2)c1N`, for which the RP-LC retention time was 616 s.
Under `O=C(Nc1ccc(F)cc1F)N1CCC(OC2CCN(Cc3ccccc3)CC2)CC1` stands 656 s.
`Cc1ccccc1-c1nnc(COc2ccc(NC(=O)c3sccc3C)cc2)o1`: the RP-LC retention time is 1010 s.
For the compound `Cc1ccc(C)c(N2CCN(c3ccnc(SCC(=O)Nc4ccccc4F)n3)CC2)c1`, the RP-LC retention time amounted to 1010 s.
Compound `Cn1cc(-c2ccc(Cl)cc2)cc1C(=O)NCc1ccco1` came in with an RP-LC retention time of 1020 s.
Turning to `CC(C)C(=O)n1nc(-c2ccccc2Cl)nc1N`, the RP-LC retention time came out at 898 s.
The compound `COc1ccc(/C=C/c2nn3c(CCc4ccccc4)nnc3s2)cc1` had an RP-LC retention time of 910 s.
Turning to `Cc1ccc(C)c(Sc2ccc(N3CCC(C(=O)NC4CC4)CC3)nn2)c1`, the RP-LC retention time came out at 713 s.
As for `Cc1cc2[nH]c(C(=O)Nc3ccc(F)cc3Cl)c(CN3CCOCC3)c2s1`, the RP-LC retention time stood at 721 s.
`COc1ccc(-n2c(=O)n(C)c(=O)c3cc(C(=O)NCc4ccncc4)cnc32)cc1`: the RP-LC retention time worked out at 596 s.
With `COc1cccc(-c2cn3ccn(-c4ccc(OC)c(Cl)c4)c(=O)c3n2)c1` the figure was 850 s; with `Cc1ccc(Oc2nccnc2N2CCCC(C(=O)N3CCN(c4cc(C)ccc4C)CC3)C2)cc1` (stereo not given), 1400 s; with `Cc1ccc(F)c(NC(=O)C2CC(=O)N(c3ccc4c(c3)CCN4C(=O)C3CC3)C2)c1` (stereo not given), 799 s.
Regarding `CCOc1ccccc1CNC(=O)c1nnc(-c2ccc(S(=O)(=O)N3CCC(C)CC3)cc2)o1`, the RP-LC retention time amounted to 1140 s.
Under `O=C(COc1ccc(Cl)cc1Cl)NCC1CCN(C(=O)c2ccccc2F)CC1` stands 858 s.
Compound `O=C(CN(C(=O)c1ccc(F)c(F)c1)C1CCCCC1)N1CCNCC1` gave an RP-LC retention time of 635 s.
On to `Cc1cc(C(=O)NCC2CCN(C(=O)Oc3ccccc3)CC2)c(C)o1`, for which the RP-LC retention time is 829 s.
Consider `CCCCN1C(=O)CN(S(=O)(=O)c2ccc(C)cc2)CC1(C)C(=O)NCc1ccccc1` (stereo not given), for which the RP-LC retention time was 974 s.
`CC(=O)Nc1cccc(-c2nc(-c3cccc(-c4ccn[nH]4)c3)no2)c1` had an RP-LC retention time of 763 s.
In the case of `CC1CCN(C(=O)C2=NN(CC(=O)OC(C)C)c3ccccc3S2(=O)=O)CC1`, the RP-LC retention time is 952 s.
In the case of `c1ccc(COCC2CCN(Cc3ccccc3)CC2)cc1`, the RP-LC retention time was found to be 588 s.
`O=C(c1ccccn1)N1CCCC(OCc2nc(C3CC3)no2)C1` (stereo not given): the RP-LC retention time worked out at 619 s.
`CCC(c1cccs1)N1C(=O)[C@H]2CN(S(=O)(=O)c3ccccc3F)C[C@H]2C1=O` (stereo not given in full) had an RP-LC retention time of 972 s.
The compound `CCN1CCCn2cc(S(=O)(=O)NCc3ccccc3Cl)cc2C1=O` had an RP-LC retention time of 750 s.
In turn, `Cc1cccc(-n2ccnc(SCC(=O)Nc3cc(Cl)ccc3C)c2=O)c1` returned an RP-LC retention time of 915 s.
For the compound `CN1C(=O)[C@H]2CN(Cc3ccc(Cl)cc3)C[C@H]2C1=O`, the RP-LC retention time amounted to 598 s.
`Cc1cccc(NC(=O)N2CCCC2c2nc(-c3ccccc3)no2)c1C` (stereo not given) gave an RP-LC retention time of 977 s.
`Cc1ccccc1CNS(=O)(=O)c1ccc2c(c1)C(=O)N(C)c1ncccc1O2` showed an RP-LC retention time of 1010 s.
For `COC(=O)c1nc(NC(=O)Cn2nc3c(cc2=O)CCCC3)sc1Cc1ccccc1`, the RP-LC retention time worked out at 868 s.
Compound `CCC(CO)Nc1ncnc2c1cnn2-c1ccc(C)c(Cl)c1` (stereo not given) returned an RP-LC retention time of 761 s.
With `CSc1ccc(CNC(=O)C2CCCN(C(=O)c3cc(C)cc(C)c3)C2)cc1` (stereo not given) the figure was 921 s.
`Fc1ccc(C2Cn3cnc(-c4nc(-c5cccs5)no4)c3CO2)cc1` (stereo not given): the RP-LC retention time turned out to be 1010 s.
In turn, `COCCNC(=O)C1CCCN(c2cnc3nccnc3c2)C1` (stereo not given) gave an RP-LC retention time of 588 s.
Under `CCOc1cccc(-c2noc(Cn3c(=O)n(-c4ccccc4C)c(=O)c4sccc43)n2)c1` stands 1070 s.
`COc1ccc(NC(=O)N2[C@H]3CC[C@@H]2c2cncnc2C3)cc1OC`: the RP-LC retention time stood at 839 s.
For the compound `Cc1nc(-c2ccc3c(c2)n(CC(=O)NC2CCCCC2)c(=O)n3C(C)C)no1`, the RP-LC retention time amounted to 857 s.
Under `CC(C)CCNC(=O)C1CCCN(C(=O)Nc2ccc(NC(=O)NC3CCCC3)cc2)C1` (stereo not given) stands 762 s; under `COc1cccc(S(=O)(=O)N2CCC3(CC2)CC(OC)CCO3)c1` (stereo not given), 865 s; under `CCN1CCn2c(nc3cc(C(=O)NCc4ccc5c(c4)OCO5)ccc32)C1=O`, 660 s.
As for `Cn1nnc2ccc(-c3noc(-c4cc(F)ccc4Cl)n3)cc21`, the RP-LC retention time was 1060 s.
Take `CCN1CCCn2cc(S(=O)(=O)N(C)c3ccc(C)cc3)cc2C1=O`: the RP-LC retention time came to 756 s.
Regarding `CCn1ncn2cc(S(=O)(=O)Nc3ccc(C)cc3)cc2c1=O`, the RP-LC retention time came out at 882 s.
The compound `CN1CCCc2cc(C(=O)NC3CCCCCC3)sc21` registered an RP-LC retention time of 755 s.
Take `O=C(O)C1CCN(S(=O)(=O)C2CC2)CC1`: the RP-LC retention time worked out at 585 s.
For the compound `CCOc1cc(=O)n2c(c1C(=O)Nc1cc(OC)ccc1OC)CCCC2`, the RP-LC retention time was 727 s.
As to `CCCN1C(=O)COc2ccc(-c3csc(NC(=O)COc4ccc(Cl)cc4Cl)n3)cc21`, the RP-LC retention time is 1210 s.
The compound `O=C(NC1CCCCCC1)c1ccc(CN2CCN(C3CCCC3)C(=O)C2=O)cc1` came in with an RP-LC retention time of 823 s.
`COc1ccccc1N1CCN(c2nc3ccccc3cc2-c2noc(C)n2)CC1` had an RP-LC retention time of 671 s.
`Cc1ccc(-c2nnc(-c3ccccc3)o2)cc1S(=O)(=O)N1CCOCC1`: the RP-LC retention time is 922 s.
Regarding `COc1cccc(NC(=O)Cc2c(C)nn(-c3nc(-c4ccc(Cl)cc4)cs3)c2C)c1`, the RP-LC retention time was found to be 1230 s.
Under `CCCNc1cc(N2CCC(CCC(=O)N3CCCN(c4ncccn4)CC3)CC2)ncn1` stands 573 s; under `O=C(Nc1cccc(Br)c1)C1CCN(c2cc(N3CCCC3)ncn2)CC1`, 722 s; under `COc1ccc2c(c1)-c1nc(NC(=O)c3ccccc3Br)sc1CC2`, 1140 s.
With `CC(C)CCNC(=O)c1nc(Nc2ccc(F)cc2)c2ccccc2n1` the figure was 851 s; with `CCOc1ccccc1NC(=O)Cn1c(N2CCOCC2)nc(COC)cc1=O`, 967 s; with `Cc1nnc(NC(=O)CN2CCN(c3ccccc3F)C2=O)s1`, 626 s.
Compound `CCS(=O)(=O)N1CCCN(C(=O)NC(C)(C)C)CC1` displayed an RP-LC retention time of 663 s.
`COc1ccc(N2CCN(C(=O)c3cn4c(n3)CCCC4)CC2)cc1` displayed an RP-LC retention time of 574 s.
With `Cc1cnc(C2CC2)n1CCNS(=O)(=O)c1cccc(F)c1` the figure was 605 s; with `Cc1ccc(-n2cc3c(N4CCCC(C(=O)NCc5cc(F)cc(F)c5)C4)ncnc3n2)cc1` (stereo not given), 740 s; with `Cc1ccc(NC(=O)C2CCCN2S(=O)(=O)c2cc3c(cc2C)NC(=O)C(C)O3)cc1F` (stereo not given), 860 s.
Under `COc1ccc(NC(=O)N2CCC(n3c(C(F)(F)F)nc4cccnc43)CC2)cc1` stands 898 s; under `O=C(c1csc(S(=O)(=O)N2CCC(C(=O)N3CCOCC3)CC2)c1)N1CCOCC1`, 620 s.

The values are drawn from the METLIN SMRT retention time set (Domingo-Almenara et al. 2019).
